# Laboratory results published in patent publication US4946839A, “Azetidine derivatives, compositions and methods of treating” (priority 1987, dated 1990).
# Key:
# GC1 receptor [1] = experiment: calcium influx stimulated by excitatory amino acids in primary cultures of cerebellar granule cells (GC1); assay type: cell-based, rat; details: for Calcium Influx % of stimulation by 10 μM GLU: 10 μM GLU (Table 2)
# Procedure: (§1) Studies described hereinbelow on the usefulness of the compounds were performed on primary cultures of cerebellar granule cells prepared from 8-day old rats according to the procedures as set forth in Wroblewski et al., Neuropharmacology 24(9), 919-921 (1985). These cultures are characterized by the presence of four subtypes of excitatory amino acid receptors, classified on the basis of the coupling of their recognition sites to specific signal transduction systems, as well as according to the pharmacology of their recognition sites. The classification distinguishes between excitatory amino acid recognition sites coupled with PI hydrolysis (Gp) and those coupled with the activation of Ca^2+ (GC). This is disclosed in greater detail in Wroblewski et al. Proc. Natl. Acad. Sci. […], 5068-5072 (1987) GP1 and GC1 receptors are activated by glutamate, aspartate, N-methyl-D-aspartate (NMDA), antagonized by 2-amino-5-phosphonovalerate (APV), and inhibited by Mg^2+ . These two receptor subtypes correspond to the NMDA receptor, however, two distinct receptors must be postulated on the basis of their signal transducing mechanisms. The GP2 receptor is activated by glutamate and quisqualate, and is insensitive to Mg^2 + and APV. The GC2 receptor is activated by kainate and preferentially antagonized by cis-piperidine-2,3-dicarboxylate. The GC2 receptor is also insensitive to Mg^2+ inhibition. These two receptors correspond to the quisqualate and kainate receptors, respectively.
# (§2) Cis-azetidine-2,4-dicarboxylic acid and derivatives selectively potentiate signal transduction at the GC1 and GP1 receptors. Referring to Table 1 the influx of calcium stimulated by NMDA, GLU, ASP and […] acting at the GC1 receptor is potentiated by cis-azetidine-2,4-dicarboxylic acid, while the action of KAIN at the GC2 receptor is not affected.
# GP1 receptor = experiment: PI hydrolysis stimulated by GLU in cerebellar granule cells; assay type: cell-based, rat; details: 20 μM GLU (Table 2); * = antagonistic activity
# Procedure: as §1, §2
# NMDA receptor subtype [2] = details: icv NMDA; cited from earlier work
# GC1 receptor [3] = experiment: inhibition of ASP-stimulated calcium influx by phencyclidine and its prevention; assay type: cell-based, rat
# Procedure: as §1
# (§3) Phencyclidine (PCP), once used as an anaesthetic, produces strong psychotropic effects manifested in humans by a state of sensory isolation, hallucinations and confusional states. It is one of the most widely abused drugs in the United States. One of the possible mechanisms of action of PCP involves the noncompetitive inhibition of the signal transduction at excitatory amino acid receptors, through allosteric interaction at a site distinct from the primary transmitter site (see Proc. Natl. Acad. Sci. USA discussed above).
# GC2 receptor = experiment: calcium influx stimulated by kainate at the GC2 receptor in cerebellar granule cells; assay type: cell-based, rat
# Procedure: as §1, with “These two receptors correspond to the quisqualate and kainate receptors, respectively.” left out
# binding site for PCP = experiment: [^3 H]PCP radioligand binding; details: radioligand binding studies
# From the text: as §3
# GC1 receptor [4] = experiment: calcium influx stimulated by GLU in the absence and presence of Az5; assay type: cell-based, rat
# Procedure: as §1
# Azxetidines increase the potency but not the efficacy of GLU action at the GC1 receptor. […] This indicates a 7-fold potentiation of the action of GLU.
# NMDA receptor subtype [5] = experiment: cGMP content in the cerebellum after icv injection of NMDA; assay type: in vivo, rat; design: cGMP: unit not given here
# Procedure: The action of the NMDA receptor subtype can be estimated in vivo by measuring the changes in the content of cyclic GMP (cGMP) in the rat cerebellum after intracerebroventricular injections of NMDA. […] In terms of its pharmacology and of its mechanism of signal transduction the active receptor in the above conditions can be compared to the CC1 reporter measured in cultures of cerebellar granule cells.
# In two series of experiments rats were injected icv with NMDA together with or without cis-azetidine-2,4-dicarboxylic acid.
compound,measurement,setting,value
"COC(=O)[C@@H]1C[C@H](C(=O)OC(C)(C)C)N1 (relative stereo) [Az1, cis-azetidine-2,4-dicarboxylic acid t-butyl methyl ester]",Calcium Influx % of stimulation by 10 μM GLU,GC1 receptor [1],107%
same,% activity (potentiation of calcium influx),GC1 receptor [1]; agonist Glu 10 μM (Table 3),107%
same,PI hydrolysis % of stimulation by 20 μM GLU,GP1 receptor,117%
"COC(=O)[C@H]1C[C@H](C(=O)OC(C)(C)C)N1 (relative stereo) [Az2, trans-azetidine-2,4-dicarboxylic acid-t-butyl methyl ester]",Calcium Influx % of stimulation by 10 μM GLU,GC1 receptor [1],104%
"CC(C)(C)OC(=O)[C@H]1C[C@@H](C(=O)O)N1 (relative stereo) [Az3, cis-azetidine-2,4-dicarboxylic acid mono-t-butyl ester]",Calcium Influx % of stimulation by 10 μM GLU,GC1 receptor [1],141%
same,% activity (potentiation of calcium influx),GC1 receptor [1]; agonist Glu 10 μM (Table 3),141%
same,% activity (potentiation of calcium influx),GC1 receptor [1]; agonist Glu 20 μM (Table 3),136%
same,PI hydrolysis % of stimulation by 20 μM GLU,GP1 receptor,125%
"CC(C)(C)OC(=O)[C@H]1C[C@H](C(=O)O)N1 (relative stereo) [Az4, trans-azetidine-2,4-dicarboxylic acid mono-t-butyl ester]",Calcium Influx % of stimulation by 10 μM GLU,GC1 receptor [1],100%
same,PI hydrolysis % of stimulation by 20 μM GLU,GP1 receptor,109%
"O=C(O)[C@H]1C[C@H](C(=O)O)N1 (relative stereo) [Az6, trans-azetidine-2,4-dicarboxylic acid]",Calcium Influx % of stimulation by 10 μM GLU,GC1 receptor [1],103%
same,PI hydrolysis % of stimulation by 20 μM GLU,GP1 receptor,83%
"NC(=O)[C@@H]1C[C@H](C(=O)O)N1 (relative stereo) [Az8, cis-4-carbamoylazetidine-2-carboxylic acid]",% activity (potentiation of calcium influx),GC1 receptor [1]; agonist Asp 20 μM (Table 3),150%
"COC(=O)[C@H]1C[C@@H](C(=O)O)N1 (relative stereo) [Az11, cis-azetidine-2,4-dicarboxylic acid methyl ester]",% activity (potentiation of calcium influx),GC1 receptor [1]; agonist Glu 10 μM (Table 3),122%
"O=C(O)[C@H]1C[C@@H](CO)N1 (relative stereo) [Az13, cis-4-(hydroxymethyl)azetidine-2-carboxylic acid]",% activity (potentiation of calcium influx),GC1 receptor [1]; agonist Asp 10 μM (Table 3),159%
"NC(CCCP(=O)(O)O)C(=O)O (centres unmarked) [APV, 2-amino-5-phosphonovaleric acid]",effect on increases in cGMP content induced by NMDA,NMDA receptor subtype [2],antagonized
"N[C@@H](CC(=O)O)C(=O)O [ASP, Aspartate, reference compound]",ASP-stimulated calcium influx,"GC1 receptor [3]; ASP 50 μM, no PCP",31.3 ± 3.4 nmol ^45 Ca^2+ /mg protein
"O=C(O)[C@@H]1C[C@H](C(=O)O)N1 [Az5, cis-azetidine-2,4-dicarboxylic acid]",Calcium Influx % of stimulation by 10 μM GLU,GC1 receptor [1],207%
same,"effect on calcium influx stimulated by NMDA, GLU, ASP and QUIS",GC1 receptor [1]; GC1 receptor,potentiated
same,% activity (potentiation of calcium influx),GC1 receptor [1]; agonist Asp 10 μM (Table 3),196%
same,% activity (potentiation of calcium influx),GC1 receptor [1]; agonist Asp 20 μM (Table 3),141%
same,Percent Activity (potentiation of calcium influx),GC1 receptor [1]; agonist Aspartate (ASP) 20 μM,144%
same,% activity (potentiation of calcium influx),GC1 receptor [1]; agonist Glu 10 μM (Table 3),207%
same,% activity (potentiation of calcium influx),GC1 receptor [1]; agonist Glu 20 μM (Table 3),157%
same,Percent Activity (potentiation of calcium influx),GC1 receptor [1]; agonist Glutamate (GLU) 20 μM,169%
same,Percent Activity (potentiation of calcium influx),GC1 receptor [1]; agonist NMDA 20 μM,188%
same,Percent Activity (potentiation of calcium influx),GC1 receptor [1]; agonist Quisqualate (QUIS) 20 μM,124%
same,effect on the action of KAIN,GC2 receptor; GC2 receptor,not affected
same,Percent Activity (potentiation of calcium influx),GC2 receptor; agonist Kainate 20 μM,104%
same,PI hydrolysis % of stimulation by 20 μM GLU,GP1 receptor,124%
same,ASP-stimulated calcium influx,"GC1 receptor [3]; ASP 50 μM + Az5 50 μM, PCP 20 nM",57.2 ± 3.2 nmol ^45 Ca^2+ /mg protein
same,ASP-stimulated calcium influx,"GC1 receptor [3]; ASP 50 μM + Az5 50 μM, PCP 50 nM",32.2 ± 1.3 nmol ^45 Ca^2+ /mg protein
same,ASP-stimulated calcium influx,"GC1 receptor [3]; ASP 50 μM + Az5 50 μM, PCP 100 nM",13.3 ± 0.3 nmol ^45 Ca^2+ /mg protein
same,ASP-stimulated calcium influx,"GC1 receptor [3]; ASP 50 μM + Az5 50 μM, no PCP",64.5 ± 2.6 nmol ^45 Ca^2+ /mg protein
same,action of PCP on ASP-stimulated signal transduction,GC1 receptor [3]; with PCP,exhibits the ability to decrease the action of PCP on ASP-stimulated signal transduction
same,displacement of specific [^3 H]PCP binding,binding site for PCP,failed to displace the specific binding of [^3 H]PCP
same,potentiation of the action of GLU,"GC1 receptor [4]; 50 μM Az5, from EC50 of GLU",7 fold
same,cGMP,"NMDA receptor subtype [5]; 5 min, Az5 2 μg",6.8 ± 0.8
same,cGMP % Control,"NMDA receptor subtype [5]; 5 min, Az5 2 μg",142 % Control
same,cGMP,"NMDA receptor subtype [5]; 5 min, NMDA + Az5 together",16.1 + 2.9
same,cGMP % Control,"NMDA receptor subtype [5]; 5 min, NMDA + Az5 together",334 % Control
same,cGMP,"NMDA receptor subtype [5]; 10 min, Az5 10 μg",14.9 ± 1.3
same,cGMP % Control,"NMDA receptor subtype [5]; 10 min, Az5 10 μg",192 % Control
same,cGMP,"NMDA receptor subtype [5]; 10 min, NMDA + Az5 together",16.5 + 2.8
same,cGMP % Control,"NMDA receptor subtype [5]; 10 min, NMDA + Az5 together",211 % Control
same,effect on action of endogenous receptor agonist and injected NMDA,NMDA receptor subtype [5]; both series,potentiated the action of the endogenous receptor agonist as well as the action of injected NMDA
"COC(=O)[C@@H]1C[C@H](C(=O)OC)N1 [Az7, cis-azetidine-2,4-dicarboxylic acid dimethyl ester]",% activity (potentiation of calcium influx),GC1 receptor [1]; agonist Glu 50 μM (Table 3),68%
"NC(=O)[C@@H]1C[C@H](C(N)=O)N1 [Az9, cis-azetidine-2,4-dicarboxamide]",% activity (potentiation of calcium influx),GC1 receptor [1]; agonist Asp 20 μM (Table 3),106%
"O=C(O)[C@H]1C[C@@H](C(=O)O)N1Cc1ccccc1 [Az10, cis-N-benzylazetidine-2,4-dicarboxylic acid]",% activity (potentiation of calcium influx),GC1 receptor [1]; agonist Asp 10 μM (Table 3),121%
"O=C(O)[C@@H]1CCN1 [Az12, L-2-azetidinecarboxylic acid, reference compound]",% activity (potentiation of calcium influx),GC1 receptor [1]; agonist Glu 20 μM (Table 3),110%
"N[C@@H](CCC(=O)O)C(=O)O [GLU, Glutamate]",EC50,GC1 receptor [4]; in the absence of Az5,51 µM
same,EC50,GC1 receptor [4]; in the presence of 50 μM Az5,7 µM
"CN[C@H](CC(=O)O)C(=O)O [NMDA, N-methyl-D-aspartate, reference compound]",cGMP,"NMDA receptor subtype [5]; 5 min, NMDA 2 μg",5.6 ± 0.8
same,cGMP % Control,"NMDA receptor subtype [5]; 5 min, NMDA 2 μg",136 % Control
same,cGMP,"NMDA receptor subtype [5]; 10 min, NMDA 1 μg",10.5 ± 2.3
same,cGMP % Control,"NMDA receptor subtype [5]; 10 min, NMDA 1 μg",135 % Control
"c1ccc(C2(N3CCCCC3)CCCCC2)cc1 [PCP, phencyclidine, reference compound]",ASP-stimulated calcium influx,"GC1 receptor [3]; ASP 50 μM, PCP 20 nM",23.0 ± 1.7 nmol ^45 Ca^2+ /mg protein
same,ASP-stimulated calcium influx,"GC1 receptor [3]; ASP 50 μM, PCP 50 nM",9.2 ± 0.5 nmol ^45 Ca^2+ /mg protein
same,ASP-stimulated calcium influx,"GC1 receptor [3]; ASP 50 μM, PCP 100 nM",0.7 ± 0.1 nmol ^45 Ca^2+ /mg protein
